In assay [1] the target is T1, Kappa-type opioid receptor (Cavia porcellus, UniProt P41144). Description: Binding affinity for kappa opioid receptor was measured using [3H]U-69593.
Assay [2] addresses Mu-type opioid receptor (Cavia porcellus) (UniProt P97266). The experiment in a line: Antagonist potency against mu opioid receptor was measured in guinea-pig ileal longitudinal muscle using PL-017. Format: functional.
Assay [3] is described as follows: Selectivity ratio between delta and mu opioid receptor in corresponding mouse vas-deferens and guinea-pig ileal longitudinal muscle. Format: functional.
Assay [4] deals with Opioid receptors; mu & delta (Rattus norvegicus) (UniProt P33533+P33535). Description: Selectivity ratio was measured between mu and delta opioid receptor. The class given is protein assay.
Assay [5] deals with Delta-type opioid receptor (Rattus norvegicus, UniProt P33533). Description: Binding affinity to delta opioid receptor was measured using [3H]DADLE.
Assay [6] can be described thus: Selectivity ratio was measured between kappa and delta opioid receptor.
Assay [7] concerns the target Delta-type opioid receptor (Mus musculus) (UniProt P32300). Description: Antagonist potency against delta opioid receptor was measured in mouse vas-deferens using DPDPE. Format: functional.
Assay [8] deals with Mu-type opioid receptor (Rattus norvegicus, UniProt P33535). Description: Binding affinity to mu opioid receptor was measured using [3H]DAMGO.
The target in assay [9] is T1, Kappa-type opioid receptor. Description: Antagonist activity on agonist stimulated [35S]GTP-gamma-S, binding in guinea pig caudate membranes (10 uM U69,593 as the agonist ligand for kappa-receptor). The class given is functional, cell membranes. Background: Binding of GTPγS marks nucleotide exchange on a G protein.
The target of assay [10] is T2, Mu-type opioid receptor (Cavia porcellus, UniProt P97266). The experiment in a line: Antagonist activity on agonist stimulated [35S]GTP-gamma-S, binding in guinea pig caudate membranes (10 uM DAMGO as the agonist ligand for Mu-receptor). The class given is functional, cell membranes.
Assay [11] has as its target T2, Mu-type opioid receptor. Description: Antagonist activity on agonist stimulated [35S]GTP-gamma-S, binding in guinea pig caudate membranes (10 uM DAMGO as the agonist ligand for mu-receptor). The class given is functional, cell membranes.

Results on twelve compounds are retold here after ChEMBL document CHEMBL1136566, “Synthesis, opioid receptor binding, and functional activity of 5'-substituted 17-cyclopropylmethylpyrido[2',3':6,7]morphinans” (Bioorg Med Chem Lett, 2003).

Sequence of Mu-type opioid receptor (Rattus norvegicus, UniProt P33535) (P33535 whole entry): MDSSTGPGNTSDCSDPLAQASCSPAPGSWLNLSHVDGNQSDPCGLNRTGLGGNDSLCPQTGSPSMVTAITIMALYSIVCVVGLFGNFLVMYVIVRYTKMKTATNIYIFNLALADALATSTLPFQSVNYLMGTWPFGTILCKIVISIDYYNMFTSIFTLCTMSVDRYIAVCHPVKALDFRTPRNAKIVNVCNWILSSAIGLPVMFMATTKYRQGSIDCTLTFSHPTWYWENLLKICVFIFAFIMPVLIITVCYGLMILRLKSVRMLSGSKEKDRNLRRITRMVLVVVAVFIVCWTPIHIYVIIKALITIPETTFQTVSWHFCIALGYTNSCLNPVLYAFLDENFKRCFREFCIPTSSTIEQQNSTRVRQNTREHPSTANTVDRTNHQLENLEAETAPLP
Sequence of Opioid receptors; mu & delta (Rattus norvegicus) (P33533 whole entry, looked up): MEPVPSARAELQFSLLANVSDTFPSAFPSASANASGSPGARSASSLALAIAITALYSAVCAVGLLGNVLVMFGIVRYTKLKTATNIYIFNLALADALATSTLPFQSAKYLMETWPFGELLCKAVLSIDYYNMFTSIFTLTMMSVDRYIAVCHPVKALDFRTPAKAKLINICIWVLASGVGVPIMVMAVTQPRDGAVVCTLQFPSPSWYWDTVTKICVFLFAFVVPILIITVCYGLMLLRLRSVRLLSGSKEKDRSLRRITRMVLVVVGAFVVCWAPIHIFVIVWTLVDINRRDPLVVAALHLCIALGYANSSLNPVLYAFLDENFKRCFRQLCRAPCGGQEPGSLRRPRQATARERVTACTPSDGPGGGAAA
Sequence of Opioid receptors; mu & delta (Rattus norvegicus) (P33535 whole entry, looked up): as the sequence (P33535 whole entry) above
Sequence of Delta-type opioid receptor (P33533 whole entry): as the sequence (P33533 whole entry, looked up) above
Sequence of Mu-type opioid receptor (Cavia porcellus) (P97266 whole entry): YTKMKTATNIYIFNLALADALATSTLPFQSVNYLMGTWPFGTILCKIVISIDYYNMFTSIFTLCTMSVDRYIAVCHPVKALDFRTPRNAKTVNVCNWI
T2 sequence (P97266 whole entry): as above
Sequence of Delta-type opioid receptor (Mus musculus) (P32300 whole entry): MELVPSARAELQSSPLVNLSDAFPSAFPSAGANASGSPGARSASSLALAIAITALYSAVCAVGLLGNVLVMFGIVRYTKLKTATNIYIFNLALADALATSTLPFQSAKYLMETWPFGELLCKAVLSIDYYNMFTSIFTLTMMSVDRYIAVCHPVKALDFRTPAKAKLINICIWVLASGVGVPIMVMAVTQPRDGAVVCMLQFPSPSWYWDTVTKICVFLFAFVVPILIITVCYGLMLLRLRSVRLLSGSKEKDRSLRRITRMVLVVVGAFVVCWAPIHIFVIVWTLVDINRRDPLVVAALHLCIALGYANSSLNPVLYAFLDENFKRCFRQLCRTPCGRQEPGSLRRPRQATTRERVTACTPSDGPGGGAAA
T1 sequence (P41144 whole entry): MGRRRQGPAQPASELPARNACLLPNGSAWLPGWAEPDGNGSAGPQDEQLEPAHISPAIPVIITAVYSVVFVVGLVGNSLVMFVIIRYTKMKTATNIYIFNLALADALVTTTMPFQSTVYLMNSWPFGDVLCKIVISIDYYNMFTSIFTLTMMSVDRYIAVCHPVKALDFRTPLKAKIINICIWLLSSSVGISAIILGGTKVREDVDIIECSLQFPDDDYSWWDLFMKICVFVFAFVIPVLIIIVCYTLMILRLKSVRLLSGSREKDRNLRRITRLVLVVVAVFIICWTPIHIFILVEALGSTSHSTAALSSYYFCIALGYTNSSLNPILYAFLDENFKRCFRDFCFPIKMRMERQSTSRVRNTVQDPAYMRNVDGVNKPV

In general, Ki refers to a measure of affinity in units of concentration, obtained from inhibition or displacement. Higher therefore signals weaker binding. Regarding `Oc1ccc2c3c1O[C@H]1c4ncc(NCc5ccccc5)cc4C[C@@]4(O)[C@@H](C2)N(CC2CC2)CC[C@]314`, the Ki in assay [1] worked out at 6.7 nM; in assay [5], 1.3 nM; at Mu-type opioid receptor [8], 15 nM. Besides, the Ke came to 5.9 nM in assay [2] and 6.5 nM in assay [7]. For the same compound, the results for the Selectivity ratio in [3], in assay [4] and in assay [6] were 0.9, 11.5 and 5.2, respectively.

In the case of `O=[N+]([O-])c1cnc2c(c1)C[C@@]1(O)[C@H]3Cc4ccc(O)c5c4[C@@]1(CCN3CC1CC1)[C@H]2O5`, the Ki in [1] is 92 nM; in assay [5], 5.5 nM; at Mu-type opioid receptor [8], 17.5 nM. Besides, the Ke in assay [2] worked out at 200 nM; in [7] it was 53 nM. Moreover, the Selectivity ratio in [3] came to 3.8; in [4], 3.2; in assay [6] it was 17.

As for `N#Cc1cnc2c(c1)C[C@@]1(O)[C@H]3Cc4ccc(O)c5c4[C@@]1(CCN3CC1CC1)[C@H]2O5`, the Ki in assay [1] was 33.9 nM; in assay [5], 4.5 nM; at Mu-type opioid receptor [8] it was 16 nM. The Ke in assay [2] was above 1000 nM; in assay [7], 44 nM. Also, the Selectivity ratio in assay [3] is above 22; in assay [4], 3.6; in assay [6] it was 7.5.

Consider `CCOC(=O)c1cnc2c(c1)C[C@@]1(O)[C@H]3Cc4ccc(O)c5c4[C@@]1(CCN3CC1CC1)[C@H]2O5`, for which the Selectivity ratio in assay [3] is given as 4.4.

Take `Oc1ccc2c3c1O[C@H]1c4ncc(CNc5ccccc5)cc4C[C@@]4(O)[C@@H](C2)N(CC2CC2)CC[C@]314`: the Ki turned out to be 19 nM in assay [1], 1.8 nM in [5] and 6 nM on Mu-type opioid receptor [8]. The Ke in assay [2] came to 5.9 nM; in assay [7], 6.5 nM. Besides, the Selectivity ratio amounted to 0.9 in [3], 3.3 in assay [4] and 10.6 in [6].

With `Oc1ccc2c3c1O[C@H]1c4ncc(Br)cc4C[C@@]4(O)[C@@H](C2)N(CC2CC2)CC[C@]314`, the Ki in assay [1] came to 55.7 nM; in [5] it was 1.2 nM; at Mu-type opioid receptor [8], 15.5 nM. In addition, the Ke worked out at 36 nM in assay [2] and 3.6 nM in assay [7]. The Selectivity ratio was found to be 10 in assay [3], 12.9 in assay [4] and 46 in assay [6].

For `N=C(N)Nc1cnc2c(c1)C[C@@]1(O)[C@H]3Cc4ccc(O)c5c4[C@@]1(CCN3CC1CC1)[C@H]2O5`, the inhibition constant Ki in assay [1] was determined as 0.7 nM; in [5], 18.7 nM; in [9] it was 1 nM; on Mu-type opioid receptor [10] it was 6.1 nM; at Mu-type opioid receptor [8], 26 nM. Besides, the Ke worked out at 500 nM in assay [2] and 170 nM in assay [7]. For the same compound, the Selectivity ratio in [4] was 1.4; in assay [6], 0.037.

Turning to `Oc1ccc2c3c1O[C@H]1c4ncccc4C[C@@]4(O)[C@@H](C2)N(CC2CC2)CC[C@]314`, the Selectivity ratio in assay [3] stood at 5.1; in [4] it was 1.9; in assay [6] it was 11.

Take `Nc1cnc2c(c1)C[C@@]1(O)[C@H]3Cc4ccc(O)c5c4[C@@]1(CCN3CC1CC1)[C@H]2O5`: the values for the Ke in assay [2] and in assay [7] were 48 nM and 25 nM, respectively. For the same compound, the Selectivity ratio in [3] is 1.9; in [4], 1.6; in [6] it was 1.5.

On to `Oc1ccc2c3c1O[C@H]1c4[nH]c5c(c4C[C@@]4(O)[C@@H](C2)N(CC2CC2)CC[C@]314)C[C@@]1(O)[C@H]2Cc3ccc(O)c4c3[C@@]1(CCN2CC1CC1)[C@H]5O4` [NORBINALTORPHIMINE], for which the inhibitory constant (Ki) came to 0.12 nM in assay [9] and 14.8 nM on Mu-type opioid receptor [11].

With `Oc1ccc2c3c1O[C@H]1c4ncc(-n5cccc5)cc4C[C@@]4(O)[C@@H](C2)N(CC2CC2)CC[C@]314`, the Ki in assay [1] stood at 12.2 nM; in [5] it was 0.64 nM; in assay [9], 8.8 nM; at Mu-type opioid receptor [10] it was 4.2 nM; at Mu-type opioid receptor [8], 19 nM. Besides, the Ke stood at 62 nM in assay [2] and 6.6 nM in [7]. The Selectivity ratio in assay [4] was 30; in assay [6], 19.

Regarding `Oc1ccc2c3c1O[C@H]1c4[nH]c5ccccc5c4C[C@@]4(O)[C@@H](C2)N(CC2CC2)CC[C@]314` [NALTRINDOLE], the inhibition constant (Ki) in assay [9] worked out at 6 nM; at Mu-type opioid receptor [11] it was 1.8 nM. The same compound registered a Ke in assay [7] of 0.53 nM.
